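How tested: cells in 96-well plates exposed to compound for 48 hours at five concentrations. GI50: concentration for 50% inhibition of growth. Definition used: TGI = concentration required for complete inhibition of growth.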
Experiments:
Experiment in all cases: NCI tumour cell line growth inhibition, 48 h
786-0 renal = system: 786-0 renal
A549 NSCLC = system: A549 NSCLC
ACHN renal = system: ACHN renal
BT-549 breast = system: BT-549 breast
CAKI-1 renal = system: CAKI-1 renal
CCRF-CEM leukemia = system: CCRF-CEM leukemia
COLO 205 colon = system: COLO 205 colon
DU-145 prostate = system: DU-145 prostate
EKVX NSCLC = system: EKVX NSCLC
HCC-2998 colon = system: HCC-2998 colon
HCT-116 colon = system: HCT-116 colon
HCT-15 colon = system: HCT-15 colon
HOP-62 NSCLC = system: HOP-62 NSCLC
HOP-92 NSCLC = system: HOP-92 NSCLC
HT29 colon = system: HT29 colon
IGROV1 ovarian = system: IGROV1 ovarian
KM12 colon = system: KM12 colon
LOX IMVI melanoma = system: LOX IMVI melanoma
M14 melanoma = system: M14 melanoma
MALME-3M melanoma = system: MALME-3M melanoma
MCF7 breast = system: MCF7 breast
MDA-MB-231 breast = system: MDA-MB-231 breast
MDA-MB-435 = system: MDA-MB-435
MOLT-4 leukemia = system: MOLT-4 leukemia
NCI-H226 lung = system: NCI-H226 lung
NCI-H23 lung = system: NCI-H23 lung
NCI-H460 lung = system: NCI-H460 lung
NCI-H522 lung = system: NCI-H522 lung
NCI/ADR-RES ovarian = system: NCI/ADR-RES ovarian
OVCAR-3 ovarian = system: OVCAR-3 ovarian
OVCAR-4 ovarian = system: OVCAR-4 ovarian
OVCAR-5 ovarian = system: OVCAR-5 ovarian
OVCAR-8 ovarian = system: OVCAR-8 ovarian
PC-3 prostate = system: PC-3 prostate
RPMI-8226 leukemia = system: RPMI-8226 leukemia
RXF 393 renal = system: RXF 393 renal
SF-268 CNS = system: SF-268 CNS
SF-295 CNS = system: SF-295 CNS
SF-539 CNS = system: SF-539 CNS
SK-MEL-2 melanoma = system: SK-MEL-2 melanoma
SK-MEL-28 melanoma = system: SK-MEL-28 melanoma
SK-MEL-5 melanoma = system: SK-MEL-5 melanoma
SK-OV-3 ovarian = system: SK-OV-3 ovarian
SN12C renal = system: SN12C renal
SNB-19 CNS = system: SNB-19 CNS
SNB-75 CNS = system: SNB-75 CNS
SR leukemia = system: SR leukemia
SW-620 colon = system: SW-620 colon
T-47D breast = system: T-47D breast
TK-10 renal = system: TK-10 renal
U251 CNS = system: U251 CNS
UACC-257 melanoma = system: UACC-257 melanoma
UACC-62 melanoma = system: UACC-62 melanoma
UO-31 renal = system: UO-31 renal

Question: For `O=C(COc1nc2ccccc2nc1-c1ccccc1)Nc1ccc(Cl)cc1`, which GI50 (786-0 renal) is on record?
Answer: 14.3 µM

Question: And the TGI (786-0 renal)?
Answer: 71.3 µM

Question: And the GI50 (A549 NSCLC)?
Answer: 27.8 µM

Question: And the TGI (A549 NSCLC)?
Answer: > 100 µM

Question: What about the GI50 (ACHN renal) of the same molecule?
Answer: 14.4 µM

Question: And the TGI (ACHN renal)?
Answer: 37.9 µM

Question: And the GI50 (BT-549 breast)?
Answer: 33.6 µM

Question: What about the TGI (BT-549 breast) of the same molecule?
Answer: > 100 µM

Question: What about the GI50 (CAKI-1 renal) of the same molecule?
Answer: 9.04 µM

Question: And the TGI (CAKI-1 renal)?
Answer: > 100 µM

Question: What about the GI50 (CCRF-CEM leukemia) of the same molecule?
Answer: 17.3 µM

Question: And the TGI (CCRF-CEM leukemia)?
Answer: > 100 µM

Question: And the GI50 (COLO 205 colon)?
Answer: 15.5 µM

Question: And the TGI (COLO 205 colon)?
Answer: > 100 µM

Question: What about the GI50 (DU-145 prostate) of the same molecule?
Answer: 54.9 µM

Question: And the TGI (DU-145 prostate)?
Answer: > 100 µM

Question: And the GI50 (EKVX NSCLC)?
Answer: 26.9 µM

Question: What about the TGI (EKVX NSCLC) of the same molecule?
Answer: > 100 µM

Question: And the GI50 (HCC-2998 colon)?
Answer: 15.6 µM

Question: And the TGI (HCC-2998 colon)?
Answer: > 100 µM

Question: And the GI50 (HCT-116 colon)?
Answer: 6.23 µM

Question: And the TGI (HCT-116 colon)?
Answer: 27.8 µM

Question: And the GI50 (HCT-15 colon)?
Answer: 15.1 µM

Question: And the TGI (HCT-15 colon)?
Answer: > 100 µM

Question: And the GI50 (HOP-62 NSCLC)?
Answer: 11.9 µM

Question: What about the TGI (HOP-62 NSCLC) of the same molecule?
Answer: 40.2 µM

Question: And the GI50 (HOP-92 NSCLC)?
Answer: 8.77 µM

Question: And the TGI (HOP-92 NSCLC)?
Answer: 36.7 µM

Question: What about the GI50 (HT29 colon) of the same molecule?
Answer: 11.4 µM

Question: What about the TGI (HT29 colon) of the same molecule?
Answer: > 100 µM

Question: What about the GI50 (IGROV1 ovarian) of the same molecule?
Answer: 14.3 µM

Question: What about the TGI (IGROV1 ovarian) of the same molecule?
Answer: 49.4 µM

Question: What about the GI50 (KM12 colon) of the same molecule?
Answer: 8.38 µM

Question: And the TGI (KM12 colon)?
Answer: > 100 µM

Question: What about the GI50 (LOX IMVI melanoma) of the same molecule?
Answer: 15.7 µM

Question: What about the TGI (LOX IMVI melanoma) of the same molecule?
Answer: 49.2 µM

Question: What about the GI50 (M14 melanoma) of the same molecule?
Answer: 11.4 µM

Question: What about the TGI (M14 melanoma) of the same molecule?
Answer: 80.7 µM

Question: What about the GI50 (MALME-3M melanoma) of the same molecule?
Answer: 20.9 µM

Question: And the TGI (MALME-3M melanoma)?
Answer: 66.3 µM

Question: And the GI50 (MCF7 breast)?
Answer: 36.8 µM

Question: And the TGI (MCF7 breast)?
Answer: > 100 µM

Question: And the GI50 (MDA-MB-231 breast)?
Answer: 15.1 µM

Question: What about the TGI (MDA-MB-231 breast) of the same molecule?
Answer: 65 µM

Question: What about the GI50 (MDA-MB-435) of the same molecule?
Answer: 18.4 µM

Question: What about the TGI (MDA-MB-435) of the same molecule?
Answer: > 100 µM

Question: And the GI50 (MOLT-4 leukemia)?
Answer: 12.6 µM

Question: What about the TGI (MOLT-4 leukemia) of the same molecule?
Answer: > 100 µM

Question: What about the GI50 (NCI-H226 lung) of the same molecule?
Answer: 10.2 µM

Question: And the TGI (NCI-H226 lung)?
Answer: 49.1 µM

Question: What about the GI50 (NCI-H23 lung) of the same molecule?
Answer: 24.9 µM

Question: What about the TGI (NCI-H23 lung) of the same molecule?
Answer: > 100 µM

Question: What about the GI50 (NCI-H460 lung) of the same molecule?
Answer: 9.79 µM

Question: What about the TGI (NCI-H460 lung) of the same molecule?
Answer: 77.8 µM

Question: And the GI50 (NCI-H522 lung)?
Answer: 3.5 µM

Question: And the TGI (NCI-H522 lung)?
Answer: 28.6 µM

Question: And the GI50 (NCI/ADR-RES ovarian)?
Answer: 4.46 µM

Question: And the TGI (NCI/ADR-RES ovarian)?
Answer: > 100 µM

Question: And the GI50 (OVCAR-3 ovarian)?
Answer: 5.56 µM

Question: What about the TGI (OVCAR-3 ovarian) of the same molecule?
Answer: 36.9 µM

Question: And the GI50 (OVCAR-4 ovarian)?
Answer: 27.7 µM

Question: And the TGI (OVCAR-4 ovarian)?
Answer: > 100 µM

Question: And the GI50 (OVCAR-5 ovarian)?
Answer: 11 µM

Question: What about the TGI (OVCAR-5 ovarian) of the same molecule?
Answer: > 100 µM

Question: And the GI50 (OVCAR-8 ovarian)?
Answer: 11.3 µM

Question: What about the TGI (OVCAR-8 ovarian) of the same molecule?
Answer: > 100 µM

Question: And the GI50 (PC-3 prostate)?
Answer: 9.99 µM

Question: And the TGI (PC-3 prostate)?
Answer: > 100 µM

Question: And the GI50 (RPMI-8226 leukemia)?
Answer: 23.1 µM

Question: And the TGI (RPMI-8226 leukemia)?
Answer: > 100 µM

Question: What about the GI50 (RXF 393 renal) of the same molecule?
Answer: 29.3 µM

Question: What about the TGI (RXF 393 renal) of the same molecule?
Answer: 80 µM

Question: What about the GI50 (SF-268 CNS) of the same molecule?
Answer: 18.5 µM

Question: And the TGI (SF-268 CNS)?
Answer: > 100 µM

Question: What about the GI50 (SF-295 CNS) of the same molecule?
Answer: 5.09 µM

Question: What about the TGI (SF-295 CNS) of the same molecule?
Answer: 40.1 µM

Question: What about the GI50 (SF-539 CNS) of the same molecule?
Answer: 14.5 µM

Question: What about the TGI (SF-539 CNS) of the same molecule?
Answer: 45.4 µM

Question: What about the GI50 (SK-MEL-2 melanoma) of the same molecule?
Answer: 15.1 µM

Question: What about the TGI (SK-MEL-2 melanoma) of the same molecule?
Answer: 58 µM

Question: And the GI50 (SK-MEL-28 melanoma)?
Answer: 18.7 µM

Question: And the TGI (SK-MEL-28 melanoma)?
Answer: > 100 µM

Question: What about the GI50 (SK-MEL-5 melanoma) of the same molecule?
Answer: 4.17 µM

Question: And the TGI (SK-MEL-5 melanoma)?
Answer: 19.7 µM

Question: And the GI50 (SK-OV-3 ovarian)?
Answer: 47.6 µM

Question: And the TGI (SK-OV-3 ovarian)?
Answer: > 100 µM

Question: And the GI50 (SN12C renal)?
Answer: 27.4 µM

Question: And the TGI (SN12C renal)?
Answer: > 100 µM

Question: What about the GI50 (SNB-19 CNS) of the same molecule?
Answer: 21.6 µM

Question: And the TGI (SNB-19 CNS)?
Answer: 89.1 µM

Question: And the GI50 (SNB-75 CNS)?
Answer: 27.7 µM

Question: What about the TGI (SNB-75 CNS) of the same molecule?
Answer: > 100 µM

Question: What about the GI50 (SR leukemia) of the same molecule?
Answer: 6.54 µM

Question: What about the TGI (SR leukemia) of the same molecule?
Answer: > 100 µM

Question: And the GI50 (SW-620 colon)?
Answer: 25.7 µM

Question: What about the TGI (SW-620 colon) of the same molecule?
Answer: > 100 µM

Question: What about the GI50 (T-47D breast) of the same molecule?
Answer: 37.5 µM

Question: And the TGI (T-47D breast)?
Answer: > 100 µM

Question: And the GI50 (TK-10 renal)?
Answer: 15.1 µM

Question: What about the TGI (TK-10 renal) of the same molecule?
Answer: 76.8 µM

Question: And the GI50 (U251 CNS)?
Answer: 13.2 µM

Question: And the TGI (U251 CNS)?
Answer: 56.4 µM

Question: And the GI50 (UACC-257 melanoma)?
Answer: 50.1 µM

Question: And the TGI (UACC-257 melanoma)?
Answer: > 100 µM

Question: What about the GI50 (UACC-62 melanoma) of the same molecule?
Answer: 12.9 µM

Question: What about the TGI (UACC-62 melanoma) of the same molecule?
Answer: 67.7 µM

Question: And the GI50 (UO-31 renal)?
Answer: 17.1 µM

Question: What about the TGI (UO-31 renal) of the same molecule?
Answer: > 100 µM

— PubChem BioAssay (NCI)
